Values quoted from earlier work, collected in patent publication US6610313B2, “Lysophospholipids composition with water solubility” (Doosan Corporation, priority 2001, dated 2003).

Legend:
[1] = tested on: phospholipase D; conditions: Proc. Natl. Acad. Sci. USA, Vol.94, pp12717-12721
[2] = LPE alone
[3] = tested on: tomato; conditions: U.S. Pat. Nos. 5,220,341 and 5,126,155

Substance	inhibition effect of phospholipase D [1]	water solubility of LPE itself [2]	aging of leaves and fruits of tomato [3]	storage time of tomato after harvesting [3]
lysophosphatidylglycerol [LPG, reference compound]	opposite	–	–	–
lysophosphatidylserine [LPS, reference compound]	opposite	–	–	–
lysophosphatidylinositol [LPI]	gradually decreases	–	–	–
lysophosphatidylic acid [LPA, reference compound]	cannot inhibit	–	–	–
lysophosphatidylethanolamine [LPE]	most excellent	not water-soluble	inhibits the aging of leaves and fruits of tomato	extends the storage time of tomato after harvesting
lysophosphatidylcholine [LPC]	only a slight activity	–	–	–
